We go through eight compounds from patent US20250018014A1, “METHOD FOR TREATING AND/OR PREVENTING REGNASE-1-RELATED DISEASE” (OSAKA UNIVERSITY, priority 2018, published 2025).

Like-named read-outs stand apart in the source and are kept apart here. Residues, ends and D or L forms follow the SMILES beside them.

In experiment [1] the target is T1, binding between TBK1 and full-length Regnase-1 (FL_Reg1) (Homo sapiens, UniProt Q5D1E8).
T1 construct: made in house; host or cells: Expi293 cells
T1 sequence (Q5D1E8 1-599): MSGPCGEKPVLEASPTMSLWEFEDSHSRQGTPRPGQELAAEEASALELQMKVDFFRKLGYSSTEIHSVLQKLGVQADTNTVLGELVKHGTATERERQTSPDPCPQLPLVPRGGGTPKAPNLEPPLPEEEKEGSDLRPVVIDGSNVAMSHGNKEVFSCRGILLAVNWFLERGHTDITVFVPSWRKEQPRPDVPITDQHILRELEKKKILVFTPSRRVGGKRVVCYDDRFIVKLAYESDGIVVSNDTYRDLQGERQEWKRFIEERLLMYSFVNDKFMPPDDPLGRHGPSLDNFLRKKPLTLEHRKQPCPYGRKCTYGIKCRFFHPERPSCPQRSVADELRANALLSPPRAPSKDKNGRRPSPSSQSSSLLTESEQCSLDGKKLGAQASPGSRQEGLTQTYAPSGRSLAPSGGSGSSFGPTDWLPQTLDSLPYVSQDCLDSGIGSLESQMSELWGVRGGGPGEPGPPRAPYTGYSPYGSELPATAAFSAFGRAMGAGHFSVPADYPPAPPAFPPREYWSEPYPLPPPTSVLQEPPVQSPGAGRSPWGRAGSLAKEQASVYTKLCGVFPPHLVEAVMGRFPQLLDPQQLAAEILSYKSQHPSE
Description: Inhibition of kinase-Regnase-1 binding by the compounds (AlphaScreen), TBK1. Put shortly: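 Read-out was AlphaScreen luminescence using anti-FLAG acceptor and glutathione donor beads, with Regnase-1 alone set as 100% and DMSO as 0% inhibition to fit IC50. Compound was premixed with 2.5 nM full-length human Regnase-1 (Expi293-expressed, FLAG/BirA-tagged). 2.5 nM TBK1 or IKKβ was then added for 2 h at room temperature.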
Background: Alpha assays give light when donor and acceptor beads are brought close together.

Experiment [2] deals with T2, ΔCTD_Reg1 (amino acids 1 to 546 of human Regnase-1) phosphorylation by IKKβ (Homo sapiens, UniProt Q5D1E8).
T2 construct: made in house; host or cells: Expi293 cells
T2 sequence (Q5D1E8 1-546): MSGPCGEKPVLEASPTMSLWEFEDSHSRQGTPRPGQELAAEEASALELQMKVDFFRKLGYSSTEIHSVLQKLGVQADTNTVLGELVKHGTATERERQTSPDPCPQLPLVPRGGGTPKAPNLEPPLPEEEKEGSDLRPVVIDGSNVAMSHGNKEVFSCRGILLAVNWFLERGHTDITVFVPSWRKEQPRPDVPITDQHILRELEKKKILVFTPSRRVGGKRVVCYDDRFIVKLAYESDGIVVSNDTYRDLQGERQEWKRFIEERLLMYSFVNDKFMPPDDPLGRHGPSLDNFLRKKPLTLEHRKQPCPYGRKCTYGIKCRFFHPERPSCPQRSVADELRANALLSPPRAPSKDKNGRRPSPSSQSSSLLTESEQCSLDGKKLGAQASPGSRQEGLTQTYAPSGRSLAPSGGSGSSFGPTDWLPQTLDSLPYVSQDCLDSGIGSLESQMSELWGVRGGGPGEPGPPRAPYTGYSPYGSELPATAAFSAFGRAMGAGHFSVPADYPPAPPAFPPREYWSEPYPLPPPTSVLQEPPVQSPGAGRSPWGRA
Description: Regnase-1 phosphorylation inhibition by compounds (AlphaScreen), IKKβ, CTD-deficient Regnase-1. It is filed as biochemical. On the procedure:
Among the full-length human Regnase-1 sequence, the 1st to 546th amino acid sequence was prepared and made into a construct having a FLAG tag on the N-terminal side and a biotin ligase BirA recognition sequence on the C-terminal side (herein, a Regnase-1 lacking the C-terminal domain of Regnase-1 (amino acids 547 to 599 in the case of SEQ ID NO: 2) is referred to as “ΔCTD_Reg1”. “ΔCTD_Reg1” is different from “Regnase-1ΔCTD”, which is a C-terminal domain deletion variant resulting from a frameshift mutation caused by a 1 bp deletion at codon 517, as prepared in Example 13). In addition, the sequence from amino acids 301 to 599 of the full-length human Regnase-1 sequence was designated as C-terminal Regnase-1, and a construct having a FLAG tag on the N-terminal side and a recognition sequence for biotin ligase BirA on the C-terminal side was prepared (Reg1_301-599). The above-mentioned Regnase-1 was expressed in mammalian Expi293 cells, purified with FLAG M2 agarose, and isolated by gel filtration chromatography. When biotinylation was required, methods of nonpatent documents (BMC biotechnology, 2008,8,41; and Protein Science, 1999,8,921-929) were used.
Using Kinase assay buffer III (manufactured by SignalChem) supplemented with 2 mM DTT, 100 μM sodium vanadate, and 2 mM manganese chloride, kinase (IKKβ (manufactured by SignalChem) or TBK1 (manufactured by SignalChem)) and Regnase-1 were reacted in the presence of 10 μM ATP at room temperature for 2 hours to perform a phosphorylation reaction.
Phosphorylated Regnase-1 was detected by the AlphaScreen system. After each of the above-mentioned phosphorylated Regnase-1 antibodies was added and reacted at room temperature for one hour, anti-FLAG AlphaLISA Acceptor Beads (manufactured by PerkinElmer) and Protein A AlphaScreen Donor Beads (manufactured by PerkinElmer) were added, and EnVision (manufactured by PerkinElmer) was used to measure the excited luminescence. As a result, phosphorylated Regnase-1 produced by the phosphorylation reaction by kinase was specifically detected, and signals were confirmed to be enhanced in a manner dependent on Regnase-1 and kinase concentrations (FIG. 24).
After mixing 2 nM of the above-mentioned Regnase-1 and the compound, phosphorylated Regnase-1 produced by the phosphorylation reaction was detected by the AlphaScreen system. As the results, the inhibition rate was calculated from the signals obtained when adding the compound at each concentration, by defining the signal obtained with Regnase-1 alone to be 100% inhibition rate, and the signal obtained when the same amount of solvent (DMSO) is added in place of the compound as 0% inhibition rate. The 50% inhibition concentration (μM) was calculated from the obtained dose response curve (Table 11).

Setting [3] is: Table 13, binding between TBK1 and Regnase-1, read-out: Binding inhibition FL_Reg1, 50% inhibition concentration (TBK1).
Where [4] appears, read: Table 14, phosphorylation by IKKβ, read-out: Phosphorylation inhibition ΔCTD_Reg1, 50% inhibition concentration (IKKβ).
The mark [5] stands for this setting: Table 12, 2.5 nM Regnase-1, 2.5 nM TBK1, AlphaScreen, read-out: 50% inhibition concentration, binding between Regnase-1 and TBK1, FL_Reg1.
Where [6] appears, read: Table 11, 2 nM Regnase-1, AlphaScreen, read-out: 50% inhibition concentration, Regnase-1 phosphorylation, ΔCTD_Reg1, IKKβ.

For `CC[C@H](C)[C@@H]1NC(=O)[C@H](Cc2c[nH]c3ccccc23)NC(=O)[C@H](CCC(N)=O)NC(=O)[C@H](Cc2ccc(O)cc2)NC(=O)[C@H](C(C)C)NC(=O)[C@H](C)NC(=O)[C@H](Cc2ccc(O)cc2)NC(=O)[C@H](CCCNC(=N)N)NC(=O)[C@H](C)N(C)C(=O)C[C@@H](C(=O)N2CCCC2)NC(=O)[C@@H]2CCCN2C(=O)[C@H](Cc2ccc(O)cc2)NC1=O` [PP12] (HELM PEPTIDE1{[meA].R.Y.A.V.Y.Q.W.I.Y.P.D.[C1CCN([*:1])C1]}$PEPTIDE1,PEPTIDE1,1:R1-12:R3$$$V2.0), the figures for the IC50 in experiment [1] (setting [3]) and in experiment [2] (setting [4]) were greater than 62.1 µM and 27 µM, respectively.
The matching figures for `CC[C@H](C)[C@@H]1NC(=O)[C@H](Cc2c[nH]c3ccccc23)NC(=O)[C@@H](Cc2ccccc2)NC(=O)[C@H](CCCCN)NC(=O)[C@H](C)N(C)C(=O)C[C@@H](C(=O)N2CCCC2)NC(=O)[C@H](CCC(=O)O)NC(=O)[C@H](Cc2ccccc2)NC(=O)[C@H](CO)NC(=O)[C@H](Cc2c[nH]cn2)NC(=O)[C@H](Cc2c[nH]cn2)NC1=O` [PP20] (HELM PEPTIDE1{[meA].K.[dF].W.I.H.H.S.F.E.D.[C1CCN([*:1])C1]}$PEPTIDE1,PEPTIDE1,1:R1-11:R3$$$V2.0): 47.6 µM and greater than 62.1 µM.
In the case of `CC[C@H](C)[C@@H]1NC(=O)[C@H](CC(N)=O)NC(=O)[C@H](Cc2ccc(O)cc2)NC(=O)[C@H](Cc2c[nH]c3ccccc23)NC(=O)[C@H](C)NC(=O)[C@H](CC(N)=O)NC(=O)[C@H](CO)NC(=O)[C@H](Cc2c[nH]cn2)NC(=O)[C@H](C)N(C)C(=O)C[C@@H](C(=O)N2CCCC2)NC(=O)[C@H](Cc2c[nH]c3ccccc23)NC1=O` [PP5] (HELM PEPTIDE1{[meA].H.S.N.A.W.Y.N.I.W.D.[C1CCN([*:1])C1]}$PEPTIDE1,PEPTIDE1,1:R1-11:R3$$$V2.0), the IC50 in experiment [1] (setting [5]) amounted to 11.5 µM; in experiment [2] (setting [6]), 20.4 µM.
For the compound `CC[C@H](C)[C@@H]1NC(=O)[C@H](CCCNC(=N)N)NC(=O)[C@H](Cc2ccc(O)cc2)NC(=O)[C@H](Cc2c[nH]c3ccccc23)NC(=O)[C@H](C)NC(=O)[C@H](CO)NC(=O)[C@H](C)NC(=O)[C@H](Cc2c[nH]cn2)NC(=O)[C@H](CCCCN)NC(=O)[C@@H](C)N(C)C(=O)C[C@@H](C(=O)N2CCCC2)NC(=O)[C@H](Cc2c[nH]c3ccccc23)NC1=O` [PP3] (HELM PEPTIDE1{[C[C@H](C(=O)[*:2])N(C)[*:1]].K.H.A.S.A.W.Y.R.I.W.D.[C1CCN([*:1])C1]}$PEPTIDE1,PEPTIDE1,1:R1-12:R3$$$V2.0), the IC50 in experiment [1] (setting [5]) was found to be 3.1 µM; in experiment [2] (setting [6]), 8.3 µM.
Regarding `CC(C)[C@@H]1NC(=O)[C@H](CCCCN)NC(=O)[C@H](Cc2ccc(O)cc2)NC(=O)[C@H](Cc2c[nH]c3ccccc23)NC(=O)[C@H](CO)NC(=O)[C@H]([C@@H](C)O)NC(=O)[C@H](C)N(C)C(=O)C[C@@H](C(=O)N2CCCC2)NC(=O)[C@H](CCC(N)=O)NC(=O)CNC(=O)[C@H](Cc2c[nH]c3ccccc23)NC(=O)[C@H](CC(N)=O)NC1=O` [PP1] (HELM PEPTIDE1{[meA].T.S.W.Y.K.V.N.W.G.Q.D.[C1CCN([*:1])C1]}$PEPTIDE1,PEPTIDE1,1:R1-12:R3$$$V2.0), the IC50 in experiment [1] (setting [5]), in experiment [1] (setting [3]), in experiment [2] (setting [6]) and in experiment [2] (setting [4]) was greater than 62.1 µM throughout.
With `CC[C@H](C)[C@@H]1NC(=O)[C@H](Cc2c[nH]c3ccccc23)NC(=O)[C@H](CCCNC(=N)N)NC(=O)[C@H](Cc2ccccc2)NC(=O)[C@H](CCC(N)=O)NC(=O)[C@H](C)NC(=O)[C@H](Cc2ccccc2)NC(=O)[C@H](CCCCN)NC(=O)[C@H](C)N(C)C(=O)C[C@@H](C(=O)N2CCCC2)NC(=O)[C@@H]2CCCN2C(=O)[C@H](Cc2ccc(O)cc2)NC1=O` [PP11] (HELM PEPTIDE1{[meA].K.F.A.Q.F.R.W.I.Y.P.D.[C1CCN([*:1])C1]}$PEPTIDE1,PEPTIDE1,1:R1-12:R3$$$V2.0), the results for the IC50 in experiment [1] (setting [3]) and in experiment [2] (setting [4]) were 60.9 µM and greater than 62.1 µM, respectively.
For `CC[C@H](C)[C@@H]1NC(=O)[C@H](CCCCN)NC(=O)[C@H](Cc2ccc(O)cc2)NC(=O)[C@H](Cc2c[nH]c3ccccc23)NC(=O)[C@H](CO)NC(=O)[C@H](CO)NC(=O)[C@H]([C@@H](C)O)NC(=O)[C@@H]2CCCN2C(=O)[C@@H](C)N(C)C(=O)C[C@@H](C(=O)N2CCCC2)NC(=O)[C@H](Cc2c[nH]c3ccccc23)NC1=O` [PP23] (HELM PEPTIDE1{[C[C@H](C(=O)[*:2])N(C)[*:1]].P.T.S.S.W.Y.K.I.W.D.[C1CCN([*:1])C1]}$PEPTIDE1,PEPTIDE1,1:R1-11:R3$$$V2.0), the IC50 in experiment [1] (setting [3]) is 9.2 µM; in experiment [2] (setting [4]) it was greater than 62.1 µM.
With `CC[C@H](C)[C@@H]1NC(=O)[C@H](CCCCN)NC(=O)[C@H](Cc2ccccc2)NC(=O)[C@H](Cc2c[nH]c3ccccc23)NC(=O)[C@H](CO)NC(=O)[C@H](CO)NC(=O)[C@H](CC(N)=O)NC(=O)[C@@H]2CCCN2C(=O)[C@@H](C)N(C)C(=O)C[C@@H](C(=O)N2CCCC2)NC(=O)[C@H](Cc2c[nH]c3ccccc23)NC1=O` [PP6] (HELM PEPTIDE1{[C[C@H](C(=O)[*:2])N(C)[*:1]].P.N.S.S.W.F.K.I.W.D.[C1CCN([*:1])C1]}$PEPTIDE1,PEPTIDE1,1:R1-11:R3$$$V2.0), the IC50 in experiment [1] (setting [5]) was 19.2 µM; in experiment [2] (setting [6]) it was 20.3 µM.
